Legend:
IL-6 = assay: LPS stimulated IL-6 in differentiated U937 cells (hPBMC), ELISA; assay type: cell-based; settings: Homo sapiens, U-937; LPS 0.1 μg/mL, 4 hours
Procedure: (§1) Therefore, inhibition of the p38 MAP Kinase pathway will lower the inflammatory response by decreasing biosynthesis of pro-inflammatory cytokines. […] The U937 human pre-monocytic cell line was obtained from the American Type Culture Collection (Rockville, MD). These cells were differentiated to a monocytic/macrophage phenotype as described by Burnette (Burnette et al, (2009). […] Differentiated U937 cells (human peripheral blood mononuclear cells (hPBMC)) were seeded into 96-well tissue culture plates (200,000 cells/well) in complete media. […] Culture media was then collected for determination of TNFα, IL-6 or IL-10 levels by ELISA. Cytokine concentrations were extrapolated from recombinant protein standard curves using a four-parameter logistic model and solving for IC50 after iterating to the best least-squares fit.

TNFα = assay: LPS stimulated TNFα in differentiated U937 cells (hPBMC), ELISA; assay type: cell-based; settings: Homo sapiens, U-937; LPS 0.1 μg/mL, 4 hours
Procedure: as §1

IL-1β = assay: LPS stimulated IL-1β in differentiated U937 cells (hPBMC), ELISA; assay type: cell-based; settings: Homo sapiens, U-937; LPS 0.1 μg/mL, 4 hours
[1] = Crystal form screen of Compound (P)-I; assay type: physicochemical; settings: for Crystal form obtained, EV: evaporation; for Crystal form obtained, RC: rapid cooling 40 to −20° C.; for Crystal form obtained, TC: temperature-cycled slurry 5-40° C.
Procedure: Water-containing solvents with a variety of water activities (aw)^1 were also included to probe for the formation of hydrates. Temperatures ranging between 40° C. to −20° C.
The screening studies were comprised of the following crystallization modes: • Temperature-cycled ripening of API slurries between 5-40° C. for four days (TC) • Rapid cooling clarified saturated solutions from 40 to −20° C. and holding at −20° C. for three days (RC) • Slow evaporation of clarified solutions at RT over 14 days.

[2] = MTX 7.5 mg single oral dose alone, fasted
[3] = 2-Methoxyethanol:Isopropyl ether (20:80)
[4] = 2-propanol:Water (90:10), water activity 0.65
[5] = 2-propanol:Water (95:5), water activity 0.55
[6] = Acetone:Water (20:80), water activity 0.96
[7] = Acetone:Water (80:20), water activity 0.77
[8] = Acetonitrile:Water (90:10), water activity 0.76
[9] = Methanol:Water (90:10), water activity 0.33
[10] = Methanol:Water (95:5), water activity 0.20
[11] = Tetrahydrofuran::Water (20:80), water activity 0.82

Structure (SMILES): Cc1cnc(-c2ccnc(C(C)(C)O)n2)cc1-n1c(C)cc(OCc2ncc(F)cc2F)c(Cl)c1=O (atropisomer, axis not shown; (M)) [(M)-I, (M)-3-chloro-4-((3,5-difluoropyridin-2-yl)methoxy)-2′-(2-(2-hydroxypropan-2-yl)pyrimidin-4-yl)-5′,6-dimethyl-2H-[1,4′-bipyridin]-2-one]
- IC50 (IL-6): > 10000 µM
- IC50 (TNFα): > 10000 µM
- IC50 (IL-1β): > 10000 µM

Structure (SMILES): Cc1cnc(-c2ccnc(C(C)(C)O)n2)cc1-n1c(C)cc(OCc2ncc(F)cc2F)c(Cl)c1=O (single isomer, unassigned) [(P)-I, (P)-3-chloro-4-((3,5-difluoropyridin-2-yl)methoxy)-2′-(2-(2-hydroxypropan-2-yl)pyrimidin-4-yl)-5′,6-dimethyl-2H-[1,4′-bipyridin]-2-one]
- IC50 (IL-6): 0.145 µM
- IC50 (TNFα): 0.004 µM
- IC50 (IL-1β): 0.012 µM
- Crystal form obtained, EV ([1]; 1,4-Dioxane): Form A
- Crystal form obtained, EV ([1]; 1,4-Dioxane:Water (90:10), water activity 0.70): Form A
- Crystal form obtained, EV ([1]; 1-Propanol): Form A
- Crystal form obtained, EV ([1]; 2-Butanone): Form A
- Crystal form obtained, EV [1, 3]: Form A
- Crystal form obtained, EV ([1]; 2-Propanol): Form A
- Crystal form obtained, EV [1, 4]: Form A
- Crystal form obtained, EV [1, 5]: Form A
- Crystal form obtained, EV ([1]; 4-Methyl-2-pentanone): Form A
- Crystal form obtained, EV ([1]; Acetone): Form A
- Crystal form obtained, EV [1, 6]: Form A
- Crystal form obtained, EV [1, 7]: Form A
- Crystal form obtained, EV ([1]; Acetone:Water (90:10), water activity 0.70): Form A
- Crystal form obtained, EV ([1]; Acetonitrile): Form A
- Crystal form obtained, EV [1, 8]: Form A
- Crystal form obtained, EV ([1]; DMSO:t-butyl methyl ether (20:80)): Form A
- Crystal form obtained, EV ([1]; Dichloromethane): Form A
- Crystal form obtained, EV ([1]; Dimethyl carbonate): Form A
- Crystal form obtained, EV ([1]; Ethanol): Form A
- Crystal form obtained, EV ([1]; Ethyl acetate): Form A
- Crystal form obtained, EV ([1]; Isopropyl acetate): Form A
- Crystal form obtained, EV ([1]; Methanol): Form A
- Crystal form obtained, EV [1, 9]: Form A
- Crystal form obtained, EV [1, 10]: Form A
- Crystal form obtained, EV ([1]; Nitromethane): Form A
- Crystal form obtained, EV ([1]; Tetrahydrofuran): Form A
- Crystal form obtained, EV [1, 11]: Form A
- Crystal form obtained, EV ([1]; Tetrahydrofuran:Water (90:10), water activity 0.83): Form A
- Crystal form obtained, EV ([1]; Toluene): Form A
- Crystal form obtained, RC [1, 4]: Form A
- Crystal form obtained, RC [1, 7]: Form A
- Crystal form obtained, RC ([1]; Acetonitrile): Form A
- Crystal form obtained, RC [1, 9]: Form A
- Crystal form obtained, RC ([1]; Nitromethane): Form A
- Crystal form obtained, TC ([1]; 1-Butanol): Form A
- Crystal form obtained, TC ([1]; 1-Methoxy-2-propanol:Isopropyl ether (20:80)): Form A
- Crystal form obtained, TC [1, 3]: Form A
- Crystal form obtained, TC ([1]; 2-Methoxyethyl ether:Heptane (20:80)): Form A
- Crystal form obtained, TC ([1]; 2-Propanol): Form A
- Crystal form obtained, TC [1, 5]: Form A
- Crystal form obtained, TC ([1]; 4-Methyl-2-pentanone): Form A
- Crystal form obtained, TC ([1]; 4-Methyl-2-pentanone:heptane (20:80)): Form A
- Crystal form obtained, TC [1, 6]: Form A
- Crystal form obtained, TC ([1]; Acetonitrile): Form A
- Crystal form obtained, TC [1, 8]: Form A
- Crystal form obtained, TC ([1]; Acetonitrile:Water (95:5), water activity 0.94): Form A
- Crystal form obtained, TC ([1]; Acetonitrile:isopropyl ethyl ether (20:80)): Form A
- Crystal form obtained, TC ([1]; Chlorobenzene:Cyclohexane (20:80)): Form A
- Crystal form obtained, TC ([1]; Cyclohexane): Form A
- Crystal form obtained, TC ([1]; Dimethyl carbonate): Form A
- Crystal form obtained, TC ([1]; Ethanol:Water (20:80), water activity 0.93): Form A
- Crystal form obtained, TC ([1]; Ethyl acetate:cyclohexane (20:80)): Form A
- Crystal form obtained, TC ([1]; Heptane): Form A
- Crystal form obtained, TC ([1]; Isopropyl acetate): Form A
- Crystal form obtained, TC ([1]; Isopropyl ether): Form A
- Crystal form obtained, TC [1, 9]: Form A
- Crystal form obtained, TC [1, 10]: Form A
- Crystal form obtained, TC ([1]; Methyl acetate:Heptane (20:80)): Form A
- Crystal form obtained, TC ([1]; N,N-Dimethylformamide:Water (20:80), water activity 0.95): Form A
- Crystal form obtained, TC ([1]; Nitromethane): Form A
- Crystal form obtained, TC [1, 11]: Form A
- Crystal form obtained, TC ([1]; Toluene): Form A
- Crystal form obtained, TC ([1]; Trifluoroethanol:Isopropyl ether (20:80)): Form A
- Crystal form obtained, TC ([1]; Water, water activity 1.00): Form A
- Crystal form obtained, TC ([1]; t-Butyl methyl ether): Form A

Structure (SMILES): CN(Cc1cnc2nc(N)nc(N)c2n1)c1ccc(C(=O)N[C@@H](CCC(=O)O)C(=O)O)cc1 [MTX, Methotrexate]
- AUC0-∞ [2]: 562.2 (102.2) ng · h/mL
- Cmax [2]: 163.3 (35.6) ng/mL
- Tmax, median (min, max) [2]: 1.0 (0.5, 2.5) h
- t1/2 [2]: 3.1 (0.7) h

Source: US11844801B2, “Oral compositions of MK2 pathway inhibitor for treatment of immune conditions” (priority 2020, dated 2023)
